Laboratory results taken from ChEMBL document CHEMBL1201862, “PubChem BioAssay data set” (2004).
Calls of active or inactive are those of the source.

What was measured:
[1] = NIH-3T3 fibroblast cytotoxicity, dose response, cytotoxicity control, cell-based, fluorescence, Alamar Blue, secondary assay (AID 2327); type: functional;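 further: NIH-3T3 mouse fibroblasts cultured with fluconazole at 8 µg/mL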
[2] = molecular target: T1, Calpain-2 catalytic subunit (Sus scrofa, UniProt P43367); assay: pig calpain II inhibitor potency, dose response, biochemical, fluorogenic peptide substrate (AID 1420); type: functional
T1 sequence (P43367 whole entry): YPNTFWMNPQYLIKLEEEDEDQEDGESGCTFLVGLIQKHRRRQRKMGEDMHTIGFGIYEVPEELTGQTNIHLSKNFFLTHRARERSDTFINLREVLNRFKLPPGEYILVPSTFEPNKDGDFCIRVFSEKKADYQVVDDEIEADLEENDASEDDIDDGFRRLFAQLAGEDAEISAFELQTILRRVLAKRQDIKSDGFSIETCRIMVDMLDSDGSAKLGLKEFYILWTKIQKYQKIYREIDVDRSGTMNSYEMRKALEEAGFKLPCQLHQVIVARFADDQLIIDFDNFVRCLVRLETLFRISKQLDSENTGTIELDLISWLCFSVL

H9c2 = assay: cells; type: functional, cell-based; settings: Rattus norvegicus, H9c2, Myocardium;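 further: confirmatory concentration-response retest of ultra-high-throughput screening hits for modulation of myocardial damage; cell death induced by hydrogen peroxide oxidative stress; compound pretreatment for 60 min then peroxide exposure for 2 h; potency is for protecting the cells against peroxide damage rather than for killing them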
Large T antigen = Large T antigen (Simian virus 40, UniProt P03070); type: functional, Betapolyomavirus macacae;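 further: Confirmatory-stage PubChem screen for compounds that inhibit SV40 T antigen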
[3] = molecular target: FAD-linked sulfhydryl oxidase ALR (Homo sapiens, UniProt P55789); assay: inhibitors of human ALR sulfhydryl oxidase, dose response, biochemical, H2O2 detection, luminescence, cherry-pick (AID 493248)
[4] = C. albicans growth with fluconazole, confirmation, fluorescence, retest (AID 2467); type: functional, cell-based
[5] = molecular target: T2, Ubiquitin-conjugating enzyme E2 N (Homo sapiens, UniProt P61088); type: functional;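 further: Dose-response confirmation in a TR-FRET assay detecting UBC13-driven polyubiquitin chain formation, inhibition measured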
T2 sequence (P61088 whole entry): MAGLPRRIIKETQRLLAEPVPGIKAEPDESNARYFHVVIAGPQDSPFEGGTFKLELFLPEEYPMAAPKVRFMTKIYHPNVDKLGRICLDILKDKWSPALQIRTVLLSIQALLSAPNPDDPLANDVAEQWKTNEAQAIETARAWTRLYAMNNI

SN12K1 = assay: cells; type: functional
P388 = assay: cells; type: functional;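 further: compound exposure lasted 48 hours before growth was measured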
[6] = molecular target: T3, Rac GTPase-activating protein 1 (Homo sapiens, UniProt Q9H0H5); assay: MgcRacGAP GTPase-activating activity inhibitors, confirmation, biochemical, ADP Hunter fluorescence, primary and confirmatory (AID 624330); type: functional
T3 sequence (Q9H0H5 whole entry): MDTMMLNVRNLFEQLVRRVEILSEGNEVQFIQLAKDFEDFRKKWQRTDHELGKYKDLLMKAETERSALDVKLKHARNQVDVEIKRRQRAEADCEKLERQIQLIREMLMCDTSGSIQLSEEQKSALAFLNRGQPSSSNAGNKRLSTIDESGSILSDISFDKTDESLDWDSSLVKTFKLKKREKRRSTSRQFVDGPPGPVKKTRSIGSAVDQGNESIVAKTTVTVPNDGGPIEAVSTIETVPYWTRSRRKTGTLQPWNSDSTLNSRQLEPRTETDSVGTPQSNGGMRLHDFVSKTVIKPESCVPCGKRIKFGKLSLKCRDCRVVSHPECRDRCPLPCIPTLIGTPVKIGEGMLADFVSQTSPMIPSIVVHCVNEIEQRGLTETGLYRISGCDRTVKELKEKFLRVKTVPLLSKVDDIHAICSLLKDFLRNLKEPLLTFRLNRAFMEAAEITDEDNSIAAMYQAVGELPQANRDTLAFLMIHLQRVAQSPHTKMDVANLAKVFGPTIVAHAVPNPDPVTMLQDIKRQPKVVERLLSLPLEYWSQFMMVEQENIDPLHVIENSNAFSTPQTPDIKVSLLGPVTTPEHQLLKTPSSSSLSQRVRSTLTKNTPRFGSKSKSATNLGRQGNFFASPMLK

[7] = molecular target: T4, Heat shock factor protein 1 (Mus musculus, UniProt P38532); assay: inhibition of MG132-induced HSE-luciferase signal, confirmation, cell-based, NIH3T3, luminescence, dose retest (AID 2382); type: functional;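 further: NIH3T3 fibroblasts with HSF1-driven luciferase reporter stressed by proteasome inhibitor MG132; luminescence from HSF1-driven luciferase expression after 8 hours of MG132 stress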
T4 sequence (P38532 whole entry): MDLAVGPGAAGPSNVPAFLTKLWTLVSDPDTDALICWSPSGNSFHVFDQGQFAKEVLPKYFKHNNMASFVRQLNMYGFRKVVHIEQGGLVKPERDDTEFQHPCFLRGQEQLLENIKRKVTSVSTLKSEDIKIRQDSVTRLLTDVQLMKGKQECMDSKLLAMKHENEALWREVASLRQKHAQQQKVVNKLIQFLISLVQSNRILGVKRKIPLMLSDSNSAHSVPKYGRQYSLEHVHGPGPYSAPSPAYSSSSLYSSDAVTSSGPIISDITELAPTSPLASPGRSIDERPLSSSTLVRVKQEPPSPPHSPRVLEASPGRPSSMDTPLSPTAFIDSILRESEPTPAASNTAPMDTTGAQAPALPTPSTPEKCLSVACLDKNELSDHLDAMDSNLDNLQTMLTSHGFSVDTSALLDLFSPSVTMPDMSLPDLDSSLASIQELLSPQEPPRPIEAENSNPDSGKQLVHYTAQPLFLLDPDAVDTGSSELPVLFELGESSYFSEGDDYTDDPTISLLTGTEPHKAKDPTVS

[8] = molecular target: T5, Polyadenylate-binding protein 1 (Homo sapiens, UniProt P11940); assay: PABP1 MLLE–PAM2 interaction inhibitors, dose response, miRNA deadenylation inhibitor project, biochemical, fluorescence polarization, Cy5-PAM2 peptide, secondary (AID 602260); type: functional; settings: read-out: IC50_Mean
[9] = molecular target: T5, Polyadenylate-binding protein 1; assay: PABP1 MLLE–PAM2 binding inhibitor potency, dose response, biochemical, fluorescence polarization, FITC-PAM2 peptide (AID 602259); type: functional; settings: read-out: IC50_Mean
HEK293 = assay: inhibitors of LMP1-driven NF-kB reporter, dose response, cell-based, HEK293, luciferase, cherry-pick (AID 588343); type: functional; settings: Homo sapiens
Vero = assay: cells; type: functional; settings: Chlorocebus sabaeus
[10] = tested on: Streptococcus sp. 'group A'; assay: growth inhibition of control SK(-) GAS strain, dose response, counter-screen for streptokinase expression inhibitor project, luminescence, kanamycin, BacTiterGlo, confirmation (AID 1900); type: functional, organism-based
Streptokinase A = molecular target: T6, Streptokinase A (Streptococcus pyogenes serotype M1, UniProt P10520); assay: S. pyogenes streptokinase expression inhibitors, potency, dose response, plasminogen activation absorbance, OD405 (AID 1914); type: functional, Streptococcus pyogenes M1 GAS;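 further: secreted streptokinase activity via plasminogen activation per viability signal from cell pellet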
T6 sequence (P10520 whole entry): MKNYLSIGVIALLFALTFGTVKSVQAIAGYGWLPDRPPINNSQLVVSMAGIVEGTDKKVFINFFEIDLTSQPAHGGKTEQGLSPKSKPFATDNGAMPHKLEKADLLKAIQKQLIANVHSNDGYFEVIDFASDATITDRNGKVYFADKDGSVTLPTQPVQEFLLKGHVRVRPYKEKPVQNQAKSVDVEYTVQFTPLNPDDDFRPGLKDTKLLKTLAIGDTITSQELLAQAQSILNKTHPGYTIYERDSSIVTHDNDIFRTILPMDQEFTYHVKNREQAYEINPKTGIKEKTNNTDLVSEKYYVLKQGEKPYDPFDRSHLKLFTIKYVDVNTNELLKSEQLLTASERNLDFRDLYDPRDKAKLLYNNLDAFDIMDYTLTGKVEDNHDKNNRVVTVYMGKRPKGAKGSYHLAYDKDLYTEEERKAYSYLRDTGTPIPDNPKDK

Streptococcus = assay: Group A Streptococcus viability loss, dose response, counter-screen for streptokinase expression inhibitor project, luminescence, BacTiterGlo (AID 1915); type: functional, organism-based;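 further: potency for reduction of bacterial viability or growth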
[11] = Luminescence Cell-Based Dose Retest to Confirm Inhibitors of Cancer Stem Cells. [Related pubchem assays (depositor defined):AID2717, AID2721]; type: functional; settings: Homo sapiens
cells = type: functional

Large T antigen, sequence (P03070 whole entry): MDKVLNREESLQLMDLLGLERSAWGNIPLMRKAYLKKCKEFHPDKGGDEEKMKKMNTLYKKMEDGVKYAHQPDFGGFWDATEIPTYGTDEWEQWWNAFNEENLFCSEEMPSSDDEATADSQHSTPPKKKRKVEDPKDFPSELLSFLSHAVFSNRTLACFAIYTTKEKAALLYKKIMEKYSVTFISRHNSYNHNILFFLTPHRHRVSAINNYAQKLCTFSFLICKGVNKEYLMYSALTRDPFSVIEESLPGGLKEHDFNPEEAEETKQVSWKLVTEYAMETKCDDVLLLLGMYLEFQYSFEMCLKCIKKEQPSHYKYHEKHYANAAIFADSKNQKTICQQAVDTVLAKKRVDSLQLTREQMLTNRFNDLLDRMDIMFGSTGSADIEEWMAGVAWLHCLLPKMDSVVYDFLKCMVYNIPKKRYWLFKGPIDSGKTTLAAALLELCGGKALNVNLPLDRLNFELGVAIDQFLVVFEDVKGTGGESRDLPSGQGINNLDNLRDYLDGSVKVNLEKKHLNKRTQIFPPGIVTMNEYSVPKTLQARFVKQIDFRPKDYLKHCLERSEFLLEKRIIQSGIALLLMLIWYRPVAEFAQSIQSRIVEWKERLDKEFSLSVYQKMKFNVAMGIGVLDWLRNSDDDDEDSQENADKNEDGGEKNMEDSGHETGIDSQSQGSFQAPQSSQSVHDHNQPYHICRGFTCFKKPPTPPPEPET
T5 sequence (P11940 whole entry): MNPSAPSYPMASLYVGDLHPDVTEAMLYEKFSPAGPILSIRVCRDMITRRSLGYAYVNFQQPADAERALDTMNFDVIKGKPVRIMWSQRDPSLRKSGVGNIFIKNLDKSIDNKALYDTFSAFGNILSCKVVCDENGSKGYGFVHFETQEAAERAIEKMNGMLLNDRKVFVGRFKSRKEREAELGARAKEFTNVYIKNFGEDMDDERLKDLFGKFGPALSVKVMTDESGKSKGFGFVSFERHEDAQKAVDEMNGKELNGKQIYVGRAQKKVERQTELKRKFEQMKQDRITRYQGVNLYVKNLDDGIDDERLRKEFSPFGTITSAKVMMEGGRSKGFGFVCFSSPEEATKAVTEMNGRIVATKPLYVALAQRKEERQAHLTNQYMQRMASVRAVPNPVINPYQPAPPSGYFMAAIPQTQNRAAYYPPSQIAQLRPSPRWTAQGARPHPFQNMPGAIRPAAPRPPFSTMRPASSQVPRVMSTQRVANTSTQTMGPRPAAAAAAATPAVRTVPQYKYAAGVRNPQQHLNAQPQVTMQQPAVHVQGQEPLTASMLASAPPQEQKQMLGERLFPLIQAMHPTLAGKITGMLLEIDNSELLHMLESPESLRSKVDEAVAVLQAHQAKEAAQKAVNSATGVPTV
FAD-linked sulfhydryl oxidase ALR, sequence (P55789 whole entry): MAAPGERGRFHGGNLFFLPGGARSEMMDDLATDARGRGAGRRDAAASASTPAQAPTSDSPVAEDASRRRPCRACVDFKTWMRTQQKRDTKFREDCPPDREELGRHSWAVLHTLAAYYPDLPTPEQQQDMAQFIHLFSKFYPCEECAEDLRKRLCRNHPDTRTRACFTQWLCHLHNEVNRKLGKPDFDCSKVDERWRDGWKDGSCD

CC(NC(=O)Nc1ccccc1F)C(C)(C)C (stereo not given)
EC50 [1]: > 160 µM (inconclusive)

CN(C)/N=C/c1cc([N+](=O)[O-])ccc1O
IC50 [2]: 13.8 µM (not active)

CCc1nnc(NC(=O)CSc2nnc(CNc3ccc(OC)cc3)n2C)s1
IC50 (H9c2): 28.3 µM (active)

c1cc2[nH]c(C3CC3)nc2c2nsnc12
IC50 (H9c2): > 79 µM (inactive)

CN1CCN(S(=O)(=O)c2ccc(N3CCN(c4ccc(O)cc4)CC3)c([N+](=O)[O-])c2)CC1
IC50 (Large T antigen): 8.6 µM (active) | AC50 [3]: 2.62 µM (active)

CCc1ccc(C(C)NC(=O)c2cc(C)oc2C)cc1 (stereo not given)
IC50 (H9c2): > 79 µM (inactive)

CCOC(=O)C(=NC1CCCCC1)NNc1cccc(C(F)(F)F)c1
EC50 [1]: > 150 µM (inconclusive) | EC50 [4]: > 38 µM (not active)

Cc1c(O)cc2n(c1=O)-c1ccc(Cl)cc1C2(C)C
EC50 [1]: > 150 µM (inactive) | EC50 [4]: 2 µM (active)

Cc1cccc(NC(=O)CN2C(=O)N/C(=C/c3cc(C)n(-c4cccnc4)c3C)C2=O)c1
IC50 [2]: > 50 µM (not active)

Cc1[nH]c2ccccc2c1/C=N\NC(=O)Cn1nnc(-c2ccccc2)n1
IC50 [2]: > 50 µM (not active)

CCOc1ccc2nc(N(CCCN(C)C)C(=O)c3ccc(C(=O)c4ccccc4)cc3)sc2c1
IC50 [5]: > 20 µM (inactive)

CC[C@H](C)[C@@H]1NC(=O)c2cc([N+](=O)[O-])cc(F)c2NCCCC[C@@H](C(N)=O)NC(=O)[C@H](CCCCN)NC1=O
IC50 [5]: > 20 µM (inactive)

CCCCCCCCCCSCC(CO)NC(=O)/C=C/c1c(C)[nH]c(=O)[nH]c1=O (stereo not given)
GI50 (SN12K1): 1.26 µM (inactive) | GI50 (SN12K1; Homo sapiens, SN12K1): 1.05 µM (active) | GI50 (P388): 0.479 µM (active) | GI50 (P388; Mus musculus, P388): 0.284 µM (active)

CCOc1cc(/C=C2/N=C(C)C(C(=O)OC)=C2O)ccc1O
IC50 (Large T antigen): 5.78 µM (active) | IC50 [6]: 26.3 µM (active)

Cc1ccc(NCc2nnc(SCC(=O)N(Cc3ccccc3)C(C)(C)C)o2)c(C)c1
IC50 [2]: 5.13 µM (not active)

C(=C\c1ccccc1)/C=N/Nc1nc(N2CCCCC2)nc(N2CCCCC2)n1
EC50 [1]: > 150 µM (inactive) | EC50 [4]: > 38 µM (not active)

COc1ccc(CCNC(=O)CCC2COc3ccccc3O2)cc1OC (stereo not given)
EC50 [1]: > 150 µM (inactive) | EC50 [4]: 16.9 µM (active)

O=C(NCC1CCN(Cc2ccccc2F)CC1)C1CCCN(c2ncnc3c2nc2n3CCCCC2)C1 (stereo not given)
IC50 [5]: > 20 µM (inactive)

Cc1cc(C)cc(SCc2noc(C(=O)NCc3ccccc3)c2C(=O)NCc2ccccc2)c1
EC50 [7]: > 195 µM (not active) | IC50 [2]: 6.27 µM (not active)

Cc1ccc(S(=O)(=O)N2CCCCC2)cc1NC(=O)COC(=O)c1ccc2c(c1)OCO2
IC50 [2]: 1.74 µM (not active)

COc1cc(NS(=O)(=O)c2ccc(NC(=S)NC(=O)c3sc4ccccc4c3Cl)cc2)nc(OC)n1
IC50 [2]: > 50 µM (not active) | IC50 [8]: > 66 µM (inactive) | IC50 [9]: > 66 µM (inactive)

CC(C)n1c(O)c(N=NC(=O)CNC(=O)CCc2ccccc2)c2ccccc21
IC50 [2]: > 50 µM (not active)

C#CCOCCOCCOCCNc1nc(N2CCN(C(=O)[C@H]([C@@H](C)CC)n3cc([C@@H](N)Cc4ccc(O)cc4)nn3)CC2)nc(N2CCN(C(=O)[C@H](CCCCN)n3cc([C@@H](N)CO)nn3)CC2)n1
IC50 [5]: > 20 µM (inactive)

Cc1ccc(CN(C(=O)CNC(=O)c2cccs2)C(C(=O)NCC2CCCO2)c2ccccc2)cc1 (stereo not given)
IC50 (H9c2): > 79 µM (inactive)

NC(=S)NN=Cc1nccc2c(C(F)(F)F)cccc12
AC50 (HEK293): 1.77 µM (active) | CC50 (Vero): 2.01 µM (active)

COc1ccc2[nH]cc(CCNC(=O)Nc3ccccc3)c2c1
IC50 [5]: > 20 µM (inactive)

CC(=O)O[C@H]1C[C@@]2(C)[C@@H](C[C@@H](O)[C@H]3[C@@]4(C)CC[C@@H](O)[C@@H](C)C4CC[C@@]32C)/C1=C(\CCC=C(C)C)C(=O)O (stereo not given in full)
EC50 [10]: 2.26 µM (active) | EC50 (Streptokinase A): 1.78 µM (active) | IC50 (Large T antigen): 24.7 µM (active) | EC50 (Streptococcus): 13.7 µM (active)

O=C(NCCCN1CCOCC1)c1ccc(CSc2ccc(Cl)cc2)cc1
AC50 [11]: 1.25 µM (active) | IC50 (cells): 34.3 µM (active) | CC50 (Vero): > 25 µM (active)

CCCN1CCN(CCCNC(=O)c2cc3c(O)nc4ccc(C)cc4c3s2)CC1
CC50 (Vero): > 25 µM (active)

O=C(Nc1nc(-c2cc(F)ccc2F)cs1)C1=NN(c2ccccc2)C(=O)CC1
IC50 (H9c2): > 79 µM (inactive)

O=c1c2cc(-c3ccccc3)sc2nc2n1N=C(c1ccccc1)CS2
CC50 (Vero): > 25 µM (active)

COc1ccccc1CN(C)C(=O)c1cc(-c2cc(OC)c(OC)c(OC)c2)nc2ccccc12
IC50 (H9c2): 29.1 µM (active)
